Test results: PubChem BioAssay (NCI)
“And” between values parts separate entries of the source, which are not always exact repeats. Equal values may be shown once.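 Dose response: 5 concentrations. Exposure: 48 h. Format: 96-well plates. Endpoint: linear interpolation; highest concentration if not reached. GI50 marks 50% less growth. TGI: total growth inhibition.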

Legend:
Assay in all cases: NCI anticancer screen, dose series, 48 h
NCI-H460 lung = system: NCI-H460 lung
786-0 renal = system: 786-0 renal
MCF7 breast = system: MCF7 breast
COLO 205 colon = system: COLO 205 colon
M14 melanoma = system: M14 melanoma
SK-MEL-2 melanoma = system: SK-MEL-2 melanoma
MALME-3M melanoma = system: MALME-3M melanoma
DU-145 prostate = system: DU-145 prostate
HOP-92 NSCLC = system: HOP-92 NSCLC
A549 NSCLC = system: A549 NSCLC
MDA-MB-435 = system: MDA-MB-435

Row | Structure (SMILES) | TGI (NCI-H460 lung) [µM] | TGI (786-0 renal) [µM] | TGI (MCF7 breast) [µM] | TGI (COLO 205 colon) [µM] | GI50 (M14 melanoma) | TGI (M14 melanoma) [µM] | TGI (SK-MEL-2 melanoma) [µM] | GI50 (MALME-3M melanoma) [µM] | TGI (MALME-3M melanoma) [µM] | TGI (DU-145 prostate) [µM] | TGI (HOP-92 NSCLC) [µM] | TGI (A549 NSCLC) [µM] | GI50 (MDA-MB-435) | TGI (MDA-MB-435) [µM]
1 | CC(=O)c1c(-c2cccc3ccccc23)c(C#N)c(=S)n(C2OC(CO)C(O)C(O)C2O)c1C (stereo not given) | > 100 | > 100 | > 100 | > 100 | > 100 µM and 42.6 µM | > 100 | > 100 | > 100 | > 100 | > 100 | > 100 | > 100 | > 100 µM and 46.9 µM | > 100
2 | C[C@@H]1OC(=O)C[C@H]2CC(=O)N(CCC3CN(C(=O)OCc4ccccc4)c4ccccc43)C[C@@H]21 (stereo not given in full) | > 100 | > 100 | > 100 | > 100 |  | > 100 | > 100 |  | > 100 | > 100 | > 100 | > 100 |  | > 100
3 | CC(=O)NC1C(OCc2ccccc2)OC(CO)C(O)C1OCC(=O)N1CCCC1C(=O)N[C@@H](CCC(=O)NCCCCNc1c2ccccc2nc2cccc([N+](=O)[O-])c12)C(N)=O (stereo not given in full) | 61.4 | > 100 | 53.8 | 46.4 |  | 40.5 | 32.7 |  | > 100 | > 100 | 28.7 | 37.8 |  | 54.5
4 | CC(C)/C(Cl)=N/OC(=O)Nc1ccc(Br)cc1 | 30.7 | 3.63 | 24.9 | 3.43 |  | 8.33 | 31.5 |  | 3.85 | 27.4 | 3.35 | 39.5 |  | 30.7
5 | CN(C)CCNc1ccc2c(=O)n(CCN(C)C)c(=O)n3c4ccc(O)cc4c(=O)c1c23 | 0.174 | 0.156 | 0.634 | 0.099 |  | 1.86 | 0.602 |  | 0.45 | 0.0781 | 0.0941 | 1.47 |  | 0.259
6 | COc1ccc2c(c1)C(=O)CC1c3cnccc3C(=O)N21 (stereo not given) | > 100 | > 100 | > 100 | > 100 |  | > 100 | > 100 |  | > 100 | > 100 | > 100 | > 100 |  | > 31.6
7 | O=[N+]([O-])c1ccccc1OCCOc1ccccc1[N+](=O)[O-] | > 100 | > 100 | > 100 | > 100 |  | > 100 | > 100 |  | > 100 | > 100 | > 100 | > 100 |  | > 100
8 | CC(=O)O[C@H]1CC(C)(C)C(=C=C/C(C)=C/C=C/C=C/C=C(C)/C=C2C=C(/C=C/[C@@]34O[C@]3(C)C[C@@H](O)CC4(C)C)C(=O)O/2)[C@](C)(O)C1 | > 100 | 85.9 | 20.7 | > 100 |  | 25.6 | 17.6 |  | 41.9 | > 100 | > 100 | 50.2 |  | > 100
9 | O=C(O)CC(Cc1ccccc1Cl)C(=O)O (stereo not given) | > 100 | > 100 | > 100 | > 100 |  | > 100 | > 100 |  | > 100 | > 100 | > 100 | > 100 |  | > 100
10 | CCC/C(Cl)=N\OC(=O)Nc1ccc(F)cc1 | > 100 | 17.5 | > 55 | 8.97 |  | 29.6 | 34.8 |  | 20.5 | 31 | 16.5 | > 100 |  | 31.9
11 | O=C(Nc1ccc(N2C(=O)CSC2c2ccccc2O)cc1)c1ccc(N2C(=O)CSC2c2ccccc2O)cc1 (stereo not given) | > 100 | > 100 | > 100 | > 100 |  | 61.3 | > 100 |  | > 100 | > 100 | 86.4 | > 100 |  | > 100
12 | O=c1[nH]c(Nc2ccccc2)nc2c1ncn2CC(O)CSCCO (stereo not given) | > 100 | > 100 | > 100 | > 100 |  | > 100 | > 100 |  | > 100 | > 100 | > 100 | > 100 |  | > 100
